{"source": "paper PMC4607724", "about": "“Discovery and optimisation studies of antimalarial phenotypic hits” (European Journal of Medicinal Chemistry, 2015)", "key": {"[1]": {"assay": "Metabolic stability, NADPH-dependent degradation in mouse liver microsomes", "assay_type": "in vitro ADME", "description": "(§1) Compound 20 (1 µM) was incubated at 37 ° C with human or mouse liver microsomes (BD Gentest, Discovery Labware Inc., Woburn, MA). The reaction was initiated by the addition of an NADPH-regenerating system containing 1 mg/mL NADP, 1 mg/mL glucose-6-phosphate, 1 U/mL glucose-6-phosphate dehydrogenase, and 0.67 mg/mL MgCl2and quenched at various time points over the incubation period (60 min) by the addition of ice cold acetonitrile. Samples were also incubated in the absence of co-factor to monitor for non-specific degradation. The relative loss of parent compound and formation of metabolic products were monitored by LC/MS using a Waters/Micromass LCT instrument.\n(§2) Compound concentration versus time data were fitted to an exponential decay function to determine the first-order rate constant for substrate depletion which was used to obtain the in vitro intrinsic clearance (in vitro CLint), and then scaled to predict the human intrinsic clearance (scaling parameters included liver mass of 25.7 g liver/kg body weight for human and 87.5 g liver/kg body weight for mouse and microsomal protein content of 45 mg microsomal protein/g liver mass for […]\n(§3) both species)[10]. […]"}, "[2]": {"system": "P. falciparum K1", "assay": "In vitro activity against erythrocytic stages of P. falciparum, 3H-hypoxanthine incorporation assay", "assay_type": "cell-based", "settings": "Plasmodium falciparum; K1 strain (chloroquine and pyrimethamine resistant); means of two independent assays; read-out: P. falc. EC50", "description": "(§4) VI. Design and Results of the in vitro & in vivo Studies.\nA. Drug inhibition of in vitro cultured P. falciparum parasite:[2] All in vitro assays were carried out twice independently in duplicate.In vitro activity against theerythrocytic stages of P. falciparum was determined by using a 3H-hypoxanthine incorporation assay, using the chloroquine and pyrimethamine resistant K1 strain and the standard drugs chloroquine (Sigma C6628) and artemisinin (Arteannuin, Qinghaosu; Sigma 36,159- 3). Compounds were dissolved in DMSO at 10 mg/mL and added to parasite cultures incubated in RPMI 1640 medium without hypoxanthine, supplemented with HEPES (5.94 g/L), NaHCO3 (2.1 g/L), neomycin (100U/mL), AlbumaxR (5 g/L), and washed human red cells A+ at 2.5% haematocrit (0.3% parasitaemia). Serial doubling dilutions of each drug were prepared in 96-well microtiter plates and incubated in a humidified atmosphere at 37 °C; 4% CO 2, 3% O2, 93% N2. After 48 h, 50 µLof 3H-hypoxanthine (= 0.5 µCi) was added to each well of the plate. The plates were incubated for an additional 24 h under the same conditions. The plates were then harvested with a Betaplate cell harvester (Wallac, Zurich, Switzerland), and the red blood cells were transferred onto a glass fiber filter and then washed with distilled water. The dried filters were inserted into a plastic foil with 10 mL of scintillation fluid and were counted in a Betaplate™ liquid scintillation counter (Wallac, Zurich, Switzerland); IC50values were calculated from sigmoidal inhibition curves using Microsoft Excel. […]"}, "[3]": {"assay": "Chromatographic LogD estimation (gLogD)", "assay_type": "physicochemical", "settings": "chromatographic gLogD technique, pH 7.4", "description": "(§5) IV. Physicochemical Evaluation […]\nChromatographic Log D Estimation: The partition coefficient (gLogDpH 7.4) of 20 was estimated by correlation of its chromatographic retention properties with the retention characteristics of a series of standard compounds with known partition coefficient values. Data were collected using a Waters 2785 HPLC with a Waters 2487 dual channel UV detector with a Phenomenex Synergi Hydro-RP 4 µm (30 mm x 2 mm) column. The mobile phase was aqueous buffer (50 mM ammonium acetate, pH 7.4) and acetonitrile with an acetonitrile gradient of 0-100% over 10 min. Compound elution was monitored at 220 and 254 nm. […]"}, "[4]": {"assay": "In vitro cytotoxicity assay in L-6 cells (Alamar Blue)", "settings": "rat, L-6 cells (rat skeletal myoblasts)", "description": "as §4\nA. Drug inhibition of in vitro cultured P. falciparum parasite:[2] […]\nB. In vitro cytotoxicity assay: [2] Assays were performed in 96-well microtiter plates, each well containing 100 µl of RPMI 1640 medium supplemented with 1% L-glutamine (200mM) and 10% fetal bovine serum, and 4 x 10^4 L-6 cells (a primary cell line derived from rat skeletal myoblasts).\nSerial drug dilutions of seven 3-fold dilution steps covering a range from 90 to 0.123 µg/mL were prepared. After 72 h of incubation the plates were inspected under an inverted microscope to assure growth of the controls and sterile conditions. 10µL of Alamar Blue was then added to each well and the plates incubated for another 2 h. Then the plates were read with a Spectramax Gemini XS microplatefluorometer (Molecular Devices Cooperation, Sunnyvale, CA, USA) using an excitation wave length of 536 nm and an emission wave length of 588 nm. Data were analysed using the microplate reader software Softmax Pro (Molecular Devices Cooperation, Sunnyvale, CA, USA)."}, "[5]": {"assay": "Metabolic stability, NADPH-dependent degradation in human liver microsomes", "assay_type": "in vitro ADME", "description": "as §1, §2, §3"}, "[6]": {"assay": "Aqueous solubility estimation by nephelometry", "assay_type": "physicochemical", "settings": "1% DMSO", "description": "as §5\nSolubility Estimation: Aqueous solubility was estimated by nephelometry. A concentrated\nstock solution prepared in DMSO was spiked into either pH 6.5 phosphate buffer or 0.01 N HCl\n(approx. pH 2.0) with the final DMSO concentration being 1%. Samples were then analyzed by\nNephelometry to determine the solubility range as described previously.[9] […]"}}, "note": "Read-outs that look alike come from different tables or passages of the source."}
{"compound": "Cc1cc(/C=C2\\S/C(=N\\c3ccccc3)N(C3CCCCC3)C2=O)c(C)n1-c1ccc(F)cc1", "note": "[Compound 20, (2Z, 5Z)-3-Cyclohexyl-5-((1-(4-fluorophenyl)-2,5-dimethyl-1H-pyrrol-3-yl)methylene)-2-(phenylimino)thiazolidin-4-one]", "values": [{"measurement": "NADPH-dependent degradation", "setting": "[1]; incubation with mouse liver microsomes", "result": "rapid NADPH-dependent degradation"}, {"measurement": "CLint scaled at 1 µM", "setting": "[1]; liver microsomes, mouse, scaled from in vitro CLint, read-out: Microsome predicted in vivo CLint", "result": 216, "unit": "mL/min/kg"}, {"measurement": "In vitro CLint", "setting": "[1]; mouse liver microsomes, 1 µM, 37 °C, NADPH", "result": 0.055, "unit": "ml/min/mg Protein"}, {"measurement": "Metabolites detected", "setting": "[1]; mouse liver microsomes, LC/MS", "result": "no obvious metabolites were detected and None"}, {"measurement": "Microsome predicted hepatic extraction ratio EH", "setting": "[1]; mouse, well-stirred model", "result": 0.71}, {"measurement": "EC50", "setting": "[2]", "result": 2000, "unit": "nM"}, {"measurement": "chromatographic logD", "setting": "[3]", "result": 7.1}, {"measurement": "EC50 at 72 h", "setting": "[4]", "result": "> 190000", "unit": "nM"}, {"measurement": "Metabolites detected", "setting": "[5]; human liver microsomes, LC/MS", "result": "no obvious metabolites were detected and None"}, {"measurement": "Microsome predicted hepatic extraction ratio EH", "setting": "[5]; human, well-stirred model", "result": 0.67}, {"measurement": "NADPH-dependent degradation", "setting": "[5]; incubation with human liver microsomes", "result": "rapid NADPH-dependent degradation"}, {"measurement": "CLint scaled at 1 µM", "setting": "[5]; liver microsomes, human, scaled from in vitro CLint, read-out: Microsome predicted in vivo CLint", "result": 42, "unit": "mL/min/kg"}, {"measurement": "Solubility pH 2.0", "setting": "[6]; pH 2.0 (0.01 N HCl)", "result": "poor aqueous solubility"}, {"measurement": "solubility", "setting": "[6]; pH 2.0 (0.01 N HCl), read-out: Solubility pH 2.0", "result": "< 0.8", "unit": "µg/mL"}, {"measurement": "Solubility pH 6.5", "setting": "[6]; pH 6.5 phosphate buffer", "result": "poor aqueous solubility"}, {"measurement": "solubility", "setting": "[6]; pH 6.5 phosphate buffer, read-out: Solubility pH 6.5", "result": "0.8 to 1.6", "unit": "µg/mL"}]}
